In US12545659B2, “IRAK degraders and uses thereof” (Kymera Therapeutics, Inc., priority 2019, dated 2026):

Biological target: T1, IRAK4 (Homo sapiens, UniProt Q9NWZ3)
T1 construct: endogenous in cells; host or cells: OCI-LY10
T1 sequence (Q9NWZ3 1-460): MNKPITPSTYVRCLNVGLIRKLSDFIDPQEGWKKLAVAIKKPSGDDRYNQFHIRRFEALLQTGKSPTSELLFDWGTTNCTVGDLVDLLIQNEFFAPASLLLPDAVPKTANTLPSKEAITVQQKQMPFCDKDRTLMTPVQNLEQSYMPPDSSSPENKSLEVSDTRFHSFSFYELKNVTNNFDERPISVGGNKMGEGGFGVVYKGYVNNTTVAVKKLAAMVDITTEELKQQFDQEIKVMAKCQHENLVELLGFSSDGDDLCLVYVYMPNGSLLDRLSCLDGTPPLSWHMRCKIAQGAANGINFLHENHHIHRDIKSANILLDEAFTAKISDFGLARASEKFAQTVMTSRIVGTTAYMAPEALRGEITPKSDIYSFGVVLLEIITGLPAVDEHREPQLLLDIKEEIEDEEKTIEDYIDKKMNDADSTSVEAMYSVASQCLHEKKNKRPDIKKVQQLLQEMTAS
Assay: IRAK4 MSD Degradation in OCI-LY10
Type: cell-based
Conditions: OCI-LY10 cells, 4 hrs incubation, read-out: IRAK4 degradation in OCI-LY10 at 4 hrs: DC50
Method in brief: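 IRAK4 remaining in lysates was read by Meso Scale electrochemiluminescence sandwich (2H9 capture, Y279 plus SULFO-TAG detection). Cells were exposed 4 to 24 h at 37 °C to eight 3-fold dilutions from 1 to 10 μM final top; three-parameter logistic fit gave DC50.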

Row | SMILES | DC50
1 | Cn1c(=O)n(C2CCC(=O)NC2=O)c2cccc(C#CCCCNC[C@H]3CC[C@H](n4cc5cc(NC(=O)c6cccc(C(F)(F)F)n6)c(C(C)(C)O)cc5n4)CC3)c21 (some centres unmarked) [I-60, N-[2-[4-[[5-[1-(2,6-dioxo-3-piperidyl)-3-methyl-2-oxo-benzimidazol-4-yl]pent-4-ynylamino]methyl]cyclohexyl]-6-(1-hydroxy-1-methyl-ethyl)indazol-5-yl]-6-(trifluoromethyl)pyridine-2-carboxamide] | < 50 nM
2 | CN(CC#Cc1ccc2c(c1)n(C)c(=O)n2C1CCC(=O)NC1=O)C[C@H]1CC[C@H](n2cc3cc(NC(=O)c4cccc(C(F)(F)F)n4)c(C(F)F)cc3n2)CC1 (some centres unmarked) [I-148] | 500 to 1000 nM

More lines, now with the values ahead:

Row | DC50 | SMILES
3 | < 50 nM | Cn1c(=O)n(C2CCC(=O)NC2=O)c2cccc(CC3CCN(C[C@H]4CC[C@H](n5cc6cc(NC(=O)c7cccc(C(F)(F)F)n7)c(C(F)F)cc6n5)CC4)CC3)c21 (some centres unmarked) [I-72]
4 | 50 to 100 nM | CN(C[C@H]1CC[C@H](n2cc3cc(NC(=O)c4cccc(C(F)(F)F)n4)c(N4CCOCC4)cc3n2)CC1)C1CCN(Cc2cccc3c2n(C)c(=O)n3C2CCC(=O)NC2=O)CC1 (some centres unmarked) [I-214]

Same assay, conditions: OCI-LY10 cells, 24 hrs incubation, read-out: IRAK4 degradation in OCI-LY10 at 24 hrs: DC50

Row | DC50 | SMILES
5 | 500 to 1000 nM | CN[C@@H](C)C(=O)N[C@H](C(=O)N1CCC[C@H]1c1nc(C(=O)c2cccc(OCCCC3CC4(CCN(C[C@H]5CC[C@H](n6cc7cc(NC(=O)c8cccc(C(F)(F)F)n8)c(OC)cc7n6)CC5)CC4)C3)c2)cs1)C1CCCCC1 [I-181, N-[2-[4-[[2-[3-[3-[2-[(2S)-1-[(2S)-2-cyclohexyl-2-[[(2S)-2-(methylamino)propanoyl]amino]acetyl]pyrrolidin-2-yl]thiazole-4-carbonyl]phenoxy]propyl]-7-azaspiro[3.5]nonan-7-yl]methyl]cyclohexyl]-6-methoxy-indazol-5-yl]-6-(trifluoromethyl)pyridine-2-carboxamide]
6 | 100 to 500 nM | COc1cc2nn([C@H]3CC[C@H](CN(C)C4CCN(c5cccc6c5C(=O)N(C5CCC(=O)NC5=O)C6=O)CC4)CC3)cc2cc1NC(=O)c1cccc(C(F)(F)F)n1 (some centres unmarked) [I-76]
7 | 500 to 1000 nM | C[C@]1(CN2CCC3(CC2)CC(CCNc2cccc4c2C(=O)N(C2CCC(=O)NC2=O)C4=O)C3)Cc2cc(NC(=O)c3cnn4cccnc34)c(N3CCOCC3)cc2O1 (stereo partly drawn) [I-196, N-[(2R)-2-[[2-[2-[[2-(2,6-dioxo-3-piperidyl)-1,3-dioxo-isoindolin-4-yl]amino]ethyl]-7-azaspiro[3.5]nonan-7-yl]methyl]-2-methyl-6-morpholino-3H-benzofuran-5-yl]pyrazolo[1,5-a]pyrimidine-3-carboxamide]

Row | SMILES | DC50
8 | CN(CCCO[C@H]1C[C@H](Nc2cccc3c2C(=O)N(C2CCC(=O)NC2=O)C3=O)C1)C[C@]1(C)Cc2cc(NC(=O)c3cccc(C(F)(F)F)n3)c(N3CCOCC3)cc2O1 (stereo partly drawn) [I-330, N-[(2S)-2-[[3-[3-[[2-(2,6-dioxo-3-piperidyl)-1,3-dioxo-isoindolin-4-yl]amino]cyclobutoxy]propyl-methyl-amino]methyl]-2-methyl-6-morpholino-3H-benzofuran-5-yl]-6-(trifluoromethyl)pyridine-2-carboxamide] | 500 to 1000 nM
